Assay results reported in PubChem BioAssay (NCI).
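Assay format: 96-well plates, 48-hour exposure. Abbreviation: GI50, concentration required for 50% inhibition of growth. TGI is the concentration that stops growth completely.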

Key:
Assay in all cases: DTP human tumour cell line panel, 48 h
A498 renal = test system: A498 renal
A549 NSCLC = test system: A549 NSCLC
ACHN renal = test system: ACHN renal
BT-549 breast = test system: BT-549 breast
CAKI-1 renal = test system: CAKI-1 renal
CCRF-CEM leukemia = test system: CCRF-CEM leukemia
COLO 205 colon = test system: COLO 205 colon
EKVX NSCLC = test system: EKVX NSCLC
HCC-2998 colon = test system: HCC-2998 colon
HCT-15 colon = test system: HCT-15 colon
HL-60(TB) leukemia = test system: HL-60(TB) leukemia
HOP-62 NSCLC = test system: HOP-62 NSCLC
HOP-92 NSCLC = test system: HOP-92 NSCLC
HS 578T breast = test system: HS 578T breast
HT29 colon = test system: HT29 colon
IGROV1 ovarian = test system: IGROV1 ovarian
KM12 colon = test system: KM12 colon
LOX IMVI melanoma = test system: LOX IMVI melanoma
M14 melanoma = test system: M14 melanoma
MALME-3M melanoma = test system: MALME-3M melanoma
MCF7 breast = test system: MCF7 breast
MDA-MB-231 breast = test system: MDA-MB-231 breast
MDA-MB-435 = test system: MDA-MB-435
MDA-N = test system: MDA-N
MOLT-4 leukemia = test system: MOLT-4 leukemia
NCI-H226 lung = test system: NCI-H226 lung
NCI-H23 lung = test system: NCI-H23 lung
NCI-H460 lung = test system: NCI-H460 lung
NCI-H522 lung = test system: NCI-H522 lung
NCI/ADR-RES ovarian = test system: NCI/ADR-RES ovarian
OVCAR-3 ovarian = test system: OVCAR-3 ovarian
OVCAR-4 ovarian = test system: OVCAR-4 ovarian
OVCAR-8 ovarian = test system: OVCAR-8 ovarian
PC-3 prostate = test system: PC-3 prostate
RPMI-8226 leukemia = test system: RPMI-8226 leukemia
SF-268 CNS = test system: SF-268 CNS
SF-295 CNS = test system: SF-295 CNS
SF-539 CNS = test system: SF-539 CNS
SK-MEL-2 melanoma = test system: SK-MEL-2 melanoma
SK-MEL-28 melanoma = test system: SK-MEL-28 melanoma
SK-MEL-5 melanoma = test system: SK-MEL-5 melanoma
SK-OV-3 ovarian = test system: SK-OV-3 ovarian
SN12C renal = test system: SN12C renal
SNB-19 CNS = test system: SNB-19 CNS
SNB-75 CNS = test system: SNB-75 CNS
SR leukemia = test system: SR leukemia
SW-620 colon = test system: SW-620 colon
T-47D breast = test system: T-47D breast
TK-10 renal = test system: TK-10 renal
UACC-257 melanoma = test system: UACC-257 melanoma
UACC-62 melanoma = test system: UACC-62 melanoma
UO-31 renal = test system: UO-31 renal
786-0 renal = test system: 786-0 renal
DU-145 prostate = test system: DU-145 prostate
HCT-116 colon = test system: HCT-116 colon
K-562 leukemia = test system: K-562 leukemia
OVCAR-5 ovarian = test system: OVCAR-5 ovarian
RXF 393 renal = test system: RXF 393 renal
U251 CNS = test system: U251 CNS

For `CN(Cc1cnc2nc(N)nc(N)c2n1)c1ccc(C(=O)NC(CCS(=O)(=O)O)C(=O)O)cc1` (centres undefined), the TGI (A498 renal) was > 100 µM, the TGI (A549 NSCLC) was > 100 µM and the TGI (ACHN renal) was > 100 µM. The TGI (BT-549 breast) was > 100 µM, the TGI (CAKI-1 renal) was > 100 µM and the TGI (CCRF-CEM leukemia) was 0.739 µM. For the same compound, the TGI (COLO 205 colon) was > 100 µM, the TGI (EKVX NSCLC) was > 100 µM and the TGI (HCC-2998 colon) was > 100 µM. The TGI (HCT-15 colon) was > 100 µM, the TGI (HL-60(TB) leukemia) was 1.62 µM and the TGI (HOP-62 NSCLC) was > 100 µM. The TGI (HOP-92 NSCLC) was > 100 µM, the TGI (HS 578T breast) was > 100 µM and the TGI (HT29 colon) was > 100 µM. The TGI (IGROV1 ovarian) was > 100 µM, the TGI (KM12 colon) was > 100 µM and the TGI (LOX IMVI melanoma) was > 100 µM. The TGI (M14 melanoma) was > 100 µM, the TGI (MALME-3M melanoma) was > 100 µM and the TGI (MCF7 breast) was > 100 µM. For the same compound, the TGI (MDA-MB-231 breast) was > 100 µM, the TGI (MDA-MB-435) was > 100 µM and the TGI (MDA-N) was > 100 µM. The TGI (MOLT-4 leukemia) was > 100 µM, the TGI (NCI-H226 lung) was > 100 µM and the TGI (NCI-H23 lung) was > 100 µM. The TGI (NCI-H460 lung) was > 31.6 µM, the TGI (NCI-H522 lung) was > 100 µM and the TGI (NCI/ADR-RES ovarian) was > 100 µM. The TGI (OVCAR-3 ovarian) was > 100 µM, the TGI (OVCAR-4 ovarian) was > 100 µM and the TGI (OVCAR-8 ovarian) was > 100 µM. The TGI (PC-3 prostate) was > 100 µM, the TGI (RPMI-8226 leukemia) was > 100 µM and the GI50 (SF-268 CNS) was 0.972 µM. For the same compound, the TGI (SF-268 CNS) was > 100 µM, the TGI (SF-295 CNS) was > 100 µM and the TGI (SF-539 CNS) was > 100 µM. The TGI (SK-MEL-2 melanoma) was > 100 µM, the TGI (SK-MEL-28 melanoma) was > 100 µM and the TGI (SK-MEL-5 melanoma) was > 100 µM. For the same compound, the TGI (SK-OV-3 ovarian) was > 100 µM, the TGI (SN12C renal) was > 100 µM and the TGI (SNB-19 CNS) was > 100 µM. For the same compound, the GI50 (SNB-75 CNS) was 96 µM, the TGI (SNB-75 CNS) was > 100 µM and the TGI (SR leukemia) was > 100 µM. The TGI (SW-620 colon) was > 100 µM, the TGI (T-47D breast) was > 100 µM and the TGI (TK-10 renal) was > 100 µM. The TGI (UACC-257 melanoma) was > 100 µM, the TGI (UACC-62 melanoma) was > 100 µM and the TGI (UO-31 renal) was > 100 µM.
With `Cn1c(-c2ccccc2)cc(-c2ccc3c(c2)OCO3)c1-c1cccs1` the TGI (786-0 renal) was > 100 µM, the TGI (A498 renal) was > 100 µM and the TGI (A549 NSCLC) was > 100 µM. For the same compound, the TGI (ACHN renal) was > 100 µM, the TGI (BT-549 breast) was > 100 µM and the TGI (CCRF-CEM leukemia) was > 100 µM. The TGI (COLO 205 colon) was > 100 µM, the TGI (DU-145 prostate) was > 100 µM and the TGI (EKVX NSCLC) was > 100 µM. For the same compound, the TGI (HCC-2998 colon) was > 100 µM, the TGI (HCT-116 colon) was > 100 µM and the TGI (HCT-15 colon) was > 100 µM. The TGI (HL-60(TB) leukemia) was > 100 µM, the TGI (HOP-62 NSCLC) was > 100 µM and the TGI (HOP-92 NSCLC) was > 100 µM. For the same compound, the TGI (HS 578T breast) was > 100 µM, the TGI (HT29 colon) was > 100 µM and the TGI (IGROV1 ovarian) was > 100 µM. For the same compound, the TGI (K-562 leukemia) was > 100 µM, the TGI (KM12 colon) was > 100 µM and the TGI (LOX IMVI melanoma) was > 100 µM. The TGI (M14 melanoma) was > 100 µM, the TGI (MCF7 breast) was > 100 µM and the TGI (MDA-MB-435) was > 100 µM. The TGI (MDA-N) was > 100 µM, the TGI (MOLT-4 leukemia) was > 100 µM and the TGI (NCI-H226 lung) was > 100 µM. For the same compound, the TGI (NCI-H23 lung) was > 100 µM, the TGI (NCI-H460 lung) was > 100 µM and the TGI (NCI/ADR-RES ovarian) was > 100 µM. The TGI (OVCAR-3 ovarian) was > 100 µM, the TGI (OVCAR-4 ovarian) was > 100 µM and the TGI (OVCAR-5 ovarian) was > 100 µM. For the same compound, the TGI (OVCAR-8 ovarian) was > 100 µM, the TGI (PC-3 prostate) was > 100 µM and the TGI (RPMI-8226 leukemia) was > 100 µM. The TGI (RXF 393 renal) was > 100 µM, the TGI (SF-268 CNS) was > 100 µM and the TGI (SF-295 CNS) was > 100 µM. The TGI (SF-539 CNS) was > 100 µM, the TGI (SK-MEL-2 melanoma) was > 100 µM and the TGI (SK-MEL-28 melanoma) was > 100 µM. The TGI (SK-MEL-5 melanoma) was > 100 µM, the TGI (SK-OV-3 ovarian) was > 100 µM and the TGI (SN12C renal) was > 100 µM. For the same compound, the TGI (SNB-19 CNS) was > 100 µM, the TGI (SNB-75 CNS) was > 100 µM and the TGI (SR leukemia) was > 100 µM. The TGI (SW-620 colon) was > 100 µM, the TGI (T-47D breast) was > 100 µM and the TGI (TK-10 renal) was > 100 µM. For the same compound, the TGI (U251 CNS) was > 100 µM, the TGI (UACC-257 melanoma) was > 100 µM and the TGI (UACC-62 melanoma) was > 100 µM. The TGI (UO-31 renal) was > 100 µM.
